In paper PMC5931096, “A Phase I study of the novel immunomodulatory agent PG545 (pixatimod) in subjects with advanced solid tumours” (British Journal of Cancer, 2018):
Entries after “also recorded” stand apart in the source; their conditions may differ.

Experiment: Phase I dose-escalation: safety, tolerability, DLT and MTD of weekly 1-h IV infusion
Type: in vivo
Protocol: The study was an open-label, multicentre, phase 1 dose-escalation study using a 3 + 3 design. The primary objective was to determine the MTD of weekly administered PG545 via IV infusion. Secondary objectives were to characterize safety, tolerability, clinical activity, PK and PD biomarkers.
Patients continued treatment until disease progression, unacceptable toxicity or withdrawal (either voluntarily or investigator-decision).
All patients were assessed for safety, those who received at least one dose of PG545 were evaluated for efficacy. Safety assessment included the incidence of all adverse events (AEs), irrespective of relationship to study drug, according to the National Cancer Institute Common Terminology Criteria for Adverse Events, version 4.0, and the incidence of patients experiencing dose modifications and/or premature discontinuation of study drug. Dose-limiting toxicities (DLTs) used to determine the MTD were defined as occurring during Cycle 1 of treatment only and related to PG545 according to investigator assessment. If no DLT occurred in the first three subjects, the next three-subject cohort was enrolled at the next highest available dose level. If a single DLT occurred, an additional three subjects was enrolled at the same dose level. Dose escalation continued until two subjects of the cohort experienced a DLT; this was defined as the toxic dose level. The dose-escalation phase was completed and MTD determined by reducing the dose to the next lowest dose compared to the toxic dose and expanding this cohort to at least 6 subjects.

CC(C)CCC[C@@H](C)[C@H]1CC[C@H]2[C@@H]3CC[C@H]4C[C@@H](O[C@@H]5O[C@H](COS(=O)(=O)O)[C@@H](O[C@H]6O[C@H](COS(=O)(=O)O)[C@@H](O[C@H]7O[C@H](COS(=O)(=O)O)[C@@H](O[C@H]8O[C@H](COS(=O)(=O)O)[C@@H](OS(=O)(=O)O)[C@H](OS(=O)(=O)O)[C@H]8OS(=O)(=O)O)[C@H](OS(=O)(=O)O)[C@H]7OS(=O)(=O)O)[C@H](OS(=O)(=O)O)[C@H]6OS(=O)(=O)O)[C@H](OS(=O)(=O)O)[C@H]5OS(=O)(=O)O)CC[C@]4(C)[C@H]3CC[C@]12C [PG545]
Acute pulmonary oedema, related AE leading to discontinuation (25 mg, N = 3): 0 n (%)
Acute pulmonary oedema, related serious AE (25 mg, N = 3): 0 n (%)
Acute pulmonary oedema, related severe AE (25 mg, N = 3): 0 n (%)
Blood cholesterol increased, related severe AE (25 mg, N = 3): 0 n (%)
Blood cholesterol increased, treatment-related AE (25 mg, N = 3): 0 n (%)
Blood pressure increased, related severe AE (25 mg, N = 3): 0 n (%)
Chills, related AE leading to discontinuation (25 mg, N = 3): 0 n (%)
Chills, related severe AE (25 mg, N = 3): 0 n (%)
Chills, treatment-related AE (25 mg, N = 3): 0 n (%)
Decreased appetite, treatment-related AE (25 mg, N = 3): 0 n (%)
Diarrhoea, treatment-related AE (25 mg, N = 3): 0 n (%)
Epistaxis, related AE leading to discontinuation (25 mg, N = 3): 0 n (%)
Epistaxis, related serious AE (25 mg, N = 3): 0 n (%)
Epistaxis, related severe AE (25 mg, N = 3): 0 n (%)
Fatigue, related severe AE (25 mg, N = 3): 0 n (%)
Fatigue, treatment-related AE (25 mg, N = 3): 0 n (%)
Headache, treatment-related AE (25 mg, N = 3): 0 n (%)
Hypercholesterolemia, treatment-related AE (25 mg, N = 3): 0 n (%)
Hyperlipidaemia, related severe AE (25 mg, N = 3): 0 n (%)
Hypertension, related AE leading to discontinuation (25 mg, N = 3): 0 n (%)
Hypertension, related serious AE (25 mg, N = 3): 0 n (%)
Hypertension, related severe AE (25 mg, N = 3): 0 n (%)
Hypertension, treatment-related AE (25 mg, N = 3): 0 n (%)
Hypovolaemia, related serious AE (25 mg, N = 3): 0 n (%)
Infusion-related reaction, related serious AE (25 mg, N = 3): 0 n (%)
Infusion-related reaction, related severe AE (25 mg, N = 3): 0 n (%)
Infusion-related reaction, treatment-related AE (25 mg, N = 3): 0 n (%)
Injection site reaction, treatment-related AE (25 mg, N = 3): 2 (67) n (%)
Nausea, treatment-related AE (25 mg, N = 3): 0 n (%)
Pyrexia, related AE leading to discontinuation (25 mg, N = 3): 0 n (%)
Pyrexia, related serious AE (25 mg, N = 3): 0 n (%)
Pyrexia, related severe AE (25 mg, N = 3): 0 n (%)
Pyrexia, treatment-related AE (25 mg, N = 3): 0 n (%)
Acute pulmonary oedema, related AE leading to discontinuation (50 mg, N = 5): 0 n (%)
Acute pulmonary oedema, related serious AE (50 mg, N = 5): 0 n (%)
Acute pulmonary oedema, related severe AE (50 mg, N = 5): 0 n (%)
Blood cholesterol increased, related severe AE (50 mg, N = 5): 0 n (%)
Blood cholesterol increased, treatment-related AE (50 mg, N = 5): 0 n (%)
Blood pressure increased, related severe AE (50 mg, N = 5): 0 n (%)
Chills, related AE leading to discontinuation (50 mg, N = 5): 1 (20) n (%)
Chills, related severe AE (50 mg, N = 5): 1 (20) n (%)
Chills, treatment-related AE (50 mg, N = 5): 1 (20) n (%)
Decreased appetite, treatment-related AE (50 mg, N = 5): 2 (40) n (%)
Diarrhoea, treatment-related AE (50 mg, N = 5): 1 (20) n (%)
Epistaxis, related AE leading to discontinuation (50 mg, N = 5): 0 n (%)
Epistaxis, related serious AE (50 mg, N = 5): 0 n (%)
Epistaxis, related severe AE (50 mg, N = 5): 0 n (%)
Fatigue, related severe AE (50 mg, N = 5): 1 (20) n (%)
Fatigue, treatment-related AE (50 mg, N = 5): 2 (40) n (%)
Headache, treatment-related AE (50 mg, N = 5): 0 n (%)
Hypercholesterolemia, treatment-related AE (50 mg, N = 5): 0 n (%)
Hyperlipidaemia, related severe AE (50 mg, N = 5): 0 n (%)
Hypertension, related AE leading to discontinuation (50 mg, N = 5): 0 n (%)
Hypertension, related serious AE (50 mg, N = 5): 0 n (%)
Hypertension, related severe AE (50 mg, N = 5): 0 n (%)
Hypertension, treatment-related AE (50 mg, N = 5): 1 (20) n (%)
Hypovolaemia, related serious AE (50 mg, N = 5): 0 n (%)
Infusion-related reaction, related serious AE (50 mg, N = 5): 0 n (%)
Infusion-related reaction, related severe AE (50 mg, N = 5): 0 n (%)
Infusion-related reaction, treatment-related AE (50 mg, N = 5): 0 n (%)
Injection site reaction, treatment-related AE (50 mg, N = 5): 0 n (%)
Nausea, treatment-related AE (50 mg, N = 5): 4 (80) n (%)
Pyrexia, related AE leading to discontinuation (50 mg, N = 5): 1 (20) n (%)
Pyrexia, related serious AE (50 mg, N = 5): 1 (20) n (%)
Pyrexia, related severe AE (50 mg, N = 5): 1 (20) n (%)
Pyrexia, treatment-related AE (50 mg, N = 5): 3 (60) n (%)
Dose-limiting toxicities (DLTs) (100 mg cohort): No DLTs were noted; also recorded: no further DLT observed
Hypertension (100 mg cohort): not observed
Acute pulmonary oedema, related AE leading to discontinuation (100 mg, N = 6): 0 n (%)
Acute pulmonary oedema, related serious AE (100 mg, N = 6): 0 n (%)
Acute pulmonary oedema, related severe AE (100 mg, N = 6): 0 n (%)
Blood cholesterol increased, related severe AE (100 mg, N = 6): 0 n (%)
Blood cholesterol increased, treatment-related AE (100 mg, N = 6): 1 (17) n (%)
Blood pressure increased, related severe AE (100 mg, N = 6): 0 n (%)
Chills, related AE leading to discontinuation (100 mg, N = 6): 0 n (%)
Chills, related severe AE (100 mg, N = 6): 0 n (%)
Chills, treatment-related AE (100 mg, N = 6): 0 n (%)
Decreased appetite, treatment-related AE (100 mg, N = 6): 1 (17) n (%)
Diarrhoea, treatment-related AE (100 mg, N = 6): 2 (33) n (%)
Epistaxis, related AE leading to discontinuation (100 mg, N = 6): 0 n (%)
Epistaxis, related serious AE (100 mg, N = 6): 0 n (%)
Epistaxis, related severe AE (100 mg, N = 6): 0 n (%)
Fatigue, related severe AE (100 mg, N = 6): 1 (17) n (%)
Fatigue, treatment-related AE (100 mg, N = 6): 2 (33) n (%)
Headache, treatment-related AE (100 mg, N = 6): 2 (33) n (%)
Hypercholesterolemia, treatment-related AE (100 mg, N = 6): 2 (33) n (%)
Hyperlipidaemia, related severe AE (100 mg, N = 6): 1 (17) n (%)
Hypertension, related AE leading to discontinuation (100 mg, N = 6): 0 n (%)
Hypertension, related serious AE (100 mg, N = 6): 0 n (%)
Hypertension, related severe AE (100 mg, N = 6): 0 n (%)
Hypertension, treatment-related AE (100 mg, N = 6): 0 n (%)
Hypovolaemia, related serious AE (100 mg, N = 6): 1 (17) n (%)
Infusion-related reaction, related serious AE (100 mg, N = 6): 0 n (%)
Infusion-related reaction, related severe AE (100 mg, N = 6): 0 n (%)
Infusion-related reaction, treatment-related AE (100 mg, N = 6): 0 n (%)
Injection site reaction, treatment-related AE (100 mg, N = 6): 0 n (%)
Nausea, treatment-related AE (100 mg, N = 6): 0 n (%)
Pyrexia, related AE leading to discontinuation (100 mg, N = 6): 0 n (%)
Pyrexia, related serious AE (100 mg, N = 6): 0 n (%)
Pyrexia, related severe AE (100 mg, N = 6): 0 n (%)
